Measured values as given in ChEMBL document CHEMBL1201862, “PubChem BioAssay data set” (2004).
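Cells were grown in 96-well plates and exposed to each compound for 48 hours at five concentrations; endpoints were interpolated linearly between bracketing concentrations, or set to the highest concentration if not reached. GI50 = concentration required for 50% inhibition of growth.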 Activity calls are given as the source filed them. Rule as the data show it: active = GI50 up to about 1.1 µM and inactive = higher.

Assays:
Experiment in all cases: inhibition of tumour cell growth, NCI panel, 48 h
786-0 = test system: 786-0
A498 = test system: A498
A549 = test system: A549
ACHN = test system: ACHN
BT-549 = test system: BT-549
CAKI-1 = test system: CAKI-1
COLO 205 = test system: COLO 205
DU-145 = test system: DU-145
EKVX = test system: EKVX
HCT-116 = test system: HCT-116
HCT-15 = test system: HCT-15
HL-60 = test system: HL-60
HOP-62 = test system: HOP-62
HOP-92 = test system: HOP-92
HT-29 = test system: HT-29
Hs-578T = test system: Hs-578T
IGROV-1 = test system: IGROV-1
K562 = test system: K562
KM12 = test system: KM12
LOX IMVI = test system: LOX IMVI
M14 = test system: M14
MCF7 = test system: MCF7
MDA-MB-231 = test system: MDA-MB-231
MDA-MB-435 = test system: MDA-MB-435
MDA-N = test system: MDA-N
MOLT-4 = test system: MOLT-4
Malme-3M = test system: Malme-3M
NCI-H226 = test system: NCI-H226
NCI-H23 = test system: NCI-H23
NCI-H460 = test system: NCI-H460
NCI-H522 = test system: NCI-H522
NCI/ADR-RES = test system: NCI/ADR-RES
OVCAR-3 = test system: OVCAR-3
OVCAR-4 = test system: OVCAR-4
OVCAR-5 = test system: OVCAR-5
OVCAR-8 = test system: OVCAR-8
PC-3 = test system: PC-3
RPMI-8226 = test system: RPMI-8226
RXF 393 = test system: RXF 393
SF-268 = test system: SF-268
SF-295 = test system: SF-295
SF-539 = test system: SF-539
SK-MEL-28 = test system: SK-MEL-28
SK-MEL-2 = test system: SK-MEL-2
SK-MEL-5 = test system: SK-MEL-5
SK-OV-3 = test system: SK-OV-3
SN12C = test system: SN12C
SNB-19 = test system: SNB-19
SNB-75 = test system: SNB-75
SR = test system: SR
SW-620 = test system: SW-620
T47D = test system: T47D
TK-10 = test system: TK-10
U-251 = test system: U-251
UACC-257 = test system: UACC-257
UACC-62 = test system: UACC-62
CCRF-CEM = test system: CCRF-CEM
HCC 2998 = test system: HCC 2998
UO-31 = test system: UO-31

COc1ccc(OC)c(-c2cc(C(=O)O)c3cc4ccccc4cc3n2)c1
GI50 (786-0): > 100 µM (inactive)
GI50 (A498): > 100 µM (inactive)
GI50 (A549): > 100 µM (inactive)
GI50 (ACHN): > 100 µM (inactive)
GI50 (BT-549): > 100 µM (inactive)
GI50 (CAKI-1): > 100 µM (inactive)
GI50 (COLO 205): > 100 µM (inactive)
GI50 (DU-145): > 100 µM (inactive)
GI50 (EKVX): > 100 µM (inactive)
GI50 (HCT-116): > 100 µM (inactive)
GI50 (HCT-15): > 100 µM
GI50 (HL-60): > 100 µM (inactive)
GI50 (HOP-62): > 100 µM (inactive)
GI50 (HOP-92): > 100 µM (inactive)
GI50 (HT-29): > 100 µM (inactive)
GI50 (Hs-578T): > 100 µM (inactive)
GI50 (IGROV-1): > 100 µM (inactive)
GI50 (K562): > 100 µM (inactive)
GI50 (KM12): > 100 µM (inactive)
GI50 (LOX IMVI): > 100 µM (inactive)
GI50 (M14): > 100 µM (inactive)
GI50 (MCF7): > 100 µM (inactive)
GI50 (MDA-MB-231): > 100 µM (inactive)
GI50 (MDA-MB-435): > 100 µM (inactive)
GI50 (MDA-N): > 100 µM (inactive)
GI50 (MOLT-4): > 100 µM (inactive)
GI50 (Malme-3M): > 100 µM (inactive)
GI50 (NCI-H226): 37.3 µM (inactive)
GI50 (NCI-H23): > 100 µM (inactive)
GI50 (NCI-H460): > 100 µM (inactive)
GI50 (NCI-H522): > 100 µM (inactive)
GI50 (NCI/ADR-RES): > 100 µM (inactive)
GI50 (OVCAR-3): > 100 µM (inactive)
GI50 (OVCAR-4): > 100 µM (inactive)
GI50 (OVCAR-5): > 100 µM (inactive)
GI50 (OVCAR-8): > 100 µM (inactive)
GI50 (PC-3): > 100 µM (inactive)
GI50 (RPMI-8226): > 100 µM (inactive)
GI50 (RXF 393): > 100 µM (inactive)
GI50 (SF-268): > 100 µM (inactive)
GI50 (SF-295): > 100 µM (inactive)
GI50 (SF-539): > 100 µM (inactive)
GI50 (SK-MEL-28): > 100 µM (inactive)
GI50 (SK-MEL-2): > 100 µM (inactive)
GI50 (SK-MEL-5): > 100 µM (inactive)
GI50 (SK-OV-3): > 100 µM (inactive)
GI50 (SN12C): > 100 µM (inactive)
GI50 (SNB-19): > 100 µM (inactive)
GI50 (SNB-75): > 100 µM (inactive)
GI50 (SR): > 100 µM (inactive)
GI50 (SW-620): > 100 µM (inactive)
GI50 (T47D): > 100 µM (inactive)
GI50 (TK-10): > 100 µM (inactive)
GI50 (U-251): > 100 µM (inactive)
GI50 (UACC-257): > 100 µM (inactive)
GI50 (UACC-62): > 100 µM (inactive)

C[C@H]1CC[C@H]([C@@H](C)[C@H]2[C@@H](O)C[C@H]3[C@@H]4CC[C@H]5C[C@@H](O)CC[C@]5(C)[C@H]4CC[C@]23C)NC1
GI50 (786-0): 18.9 µM (inactive)
GI50 (A498): 17.4 µM (inactive)
GI50 (A549): 17 µM (inactive)
GI50 (ACHN): 21.2 µM (inactive)
GI50 (BT-549): 17.5 µM (inactive)
GI50 (CAKI-1): 16.1 µM (inactive)
GI50 (CCRF-CEM): 5.53 µM (inactive)
GI50 (COLO 205): 19.6 µM (inactive)
GI50 (DU-145): 16.2 µM (inactive)
GI50 (EKVX): 16.3 µM (inactive)
GI50 (HCC 2998): 18.6 µM (inactive)
GI50 (HCT-116): 15.6 µM (inactive)
GI50 (HCT-15): 17 µM
GI50 (HL-60): 4.45 µM (inactive)
GI50 (HOP-62): 23.7 µM (inactive)
GI50 (HOP-92): 14.5 µM (inactive)
GI50 (HT-29): 18.1 µM (inactive)
GI50 (Hs-578T): 27.1 µM (inactive)
GI50 (IGROV-1): 19.2 µM (inactive)
GI50 (KM12): 15.2 µM (inactive)
GI50 (LOX IMVI): 19.2 µM (inactive)
GI50 (M14): 24.2 µM (inactive)
GI50 (MCF7): 21.9 µM (inactive)
GI50 (MDA-MB-231): 21.2 µM (inactive)
GI50 (MDA-MB-435): 16.7 µM (inactive)
GI50 (MDA-N): 21.3 µM (inactive)
GI50 (MOLT-4): 9.66 µM (inactive)
GI50 (Malme-3M): 15.7 µM (inactive)
GI50 (NCI-H226): 18.1 µM (inactive)
GI50 (NCI-H23): 15.5 µM (inactive)
GI50 (NCI-H460): 20.2 µM (inactive)
GI50 (NCI-H522): 15.8 µM (inactive)
GI50 (NCI/ADR-RES): 14.7 µM (inactive)
GI50 (OVCAR-3): 18.7 µM (inactive)
GI50 (OVCAR-4): 15.8 µM (inactive)
GI50 (OVCAR-5): 19.3 µM (inactive)
GI50 (OVCAR-8): 15 µM (inactive)
GI50 (PC-3): 12.4 µM (inactive)
GI50 (RPMI-8226): 7.31 µM (inactive)
GI50 (RXF 393): 20.6 µM (inactive)
GI50 (SF-268): 23.1 µM (inactive)
GI50 (SF-295): 16.9 µM (inactive)
GI50 (SF-539): 23.6 µM (inactive)
GI50 (SK-MEL-28): 18.7 µM (inactive)
GI50 (SK-MEL-2): 19.6 µM (inactive)
GI50 (SK-MEL-5): 21.3 µM (inactive)
GI50 (SK-OV-3): 15.9 µM (inactive)
GI50 (SN12C): 16.3 µM (inactive)
GI50 (SNB-19): 23.5 µM (inactive)
GI50 (SR): 6.34 µM (inactive)
GI50 (SW-620): 18.7 µM (inactive)
GI50 (T47D): 12.6 µM (inactive)
GI50 (TK-10): 18.3 µM (inactive)
GI50 (U-251): 15.8 µM (inactive)
GI50 (UACC-257): 18.4 µM (inactive)
GI50 (UACC-62): 14.6 µM (inactive)
GI50 (UO-31): 13.9 µM (inactive)

CN(C)CCCNc1ccnc2cc([N+](=O)[O-])ccc12
GI50 (786-0): 10.4 µM (inactive)
GI50 (A498): 17.2 µM (inactive)
GI50 (A549): 22.5 µM (inactive)
GI50 (ACHN): 19 µM (inactive)
GI50 (BT-549): 19.1 µM (inactive)
GI50 (CAKI-1): 26.9 µM (inactive)
GI50 (CCRF-CEM): > 100 µM (inactive)
GI50 (COLO 205): 2.65 µM (inactive)
GI50 (DU-145): 27.8 µM (inactive)
GI50 (HCT-116): 6.31 µM (inactive)
GI50 (HCT-15): 12.1 µM
GI50 (HOP-62): 16 µM (inactive)
GI50 (HOP-92): 3.38 µM (inactive)
GI50 (HT-29): 2.68 µM (inactive)
GI50 (Hs-578T): 17.9 µM (inactive)
GI50 (IGROV-1): 4.06 µM (inactive)
GI50 (K562): > 100 µM (inactive)
GI50 (KM12): 10.2 µM (inactive)
GI50 (LOX IMVI): 11.4 µM (inactive)
GI50 (M14): 12 µM (inactive)
GI50 (MCF7): 4.47 µM (inactive)
GI50 (MDA-MB-231): 13.3 µM (inactive)
GI50 (MDA-MB-435): 14.8 µM (inactive)
GI50 (MDA-N): 12.1 µM (inactive)
GI50 (MOLT-4): > 100 µM (inactive)
GI50 (Malme-3M): 3.44 µM (inactive)
GI50 (NCI-H226): 14.9 µM (inactive)
GI50 (NCI-H23): 11.7 µM (inactive)
GI50 (NCI-H460): 4.97 µM (inactive)
GI50 (NCI-H522): 3.6 µM (inactive)
GI50 (NCI/ADR-RES): 20 µM (inactive)
GI50 (OVCAR-3): 5.11 µM (inactive)
GI50 (OVCAR-4): 3.35 µM (inactive)
GI50 (OVCAR-5): 20.7 µM (inactive)
GI50 (OVCAR-8): 13.9 µM (inactive)
GI50 (PC-3): 14.1 µM (inactive)
GI50 (RPMI-8226): 59.2 µM (inactive)
GI50 (RXF 393): 11.2 µM (inactive)
GI50 (SF-268): 21 µM (inactive)
GI50 (SF-295): 20.4 µM (inactive)
GI50 (SF-539): 16.3 µM (inactive)
GI50 (SK-MEL-28): 36.2 µM (inactive)
GI50 (SK-MEL-2): 14.5 µM (inactive)
GI50 (SK-MEL-5): 11.9 µM (inactive)
GI50 (SK-OV-3): 21.2 µM (inactive)
GI50 (SN12C): 17.2 µM (inactive)
GI50 (SNB-75): 23.3 µM (inactive)
GI50 (SR): > 100 µM (inactive)
GI50 (SW-620): 7.45 µM (inactive)
GI50 (T47D): 5.98 µM (inactive)
GI50 (TK-10): 30.7 µM (inactive)
GI50 (U-251): 23.7 µM (inactive)
GI50 (UACC-257): 13.9 µM (inactive)
GI50 (UACC-62): 18.8 µM (inactive)
GI50 (UO-31): 16.9 µM (inactive)
